Consider 88 compounds from a melting point compilation (Tetko et al.; mined from patent text by program, amines drawn as free bases though some values may be those of a salt).

Residues, ends and D or L forms follow the SMILES beside them. *: point of attachment. Boc = CC(C)(C)OC(=O)*

Consider `Cc1ccc(S(=O)(=O)N2[C@H](CCCc3nnn(C)n3)CC[C@@H]2c2ccc(F)cc2)cc1` (racemic), for which the melting point amounted to 107 °C.

In the case of `C#CCN(Cc1cc2c(=O)n(C)c(CN(CC)CC)nc2cc1Cl)c1ccc(C(=O)OC(C)(C)C)cc1`, the melting point lay within 112 to 113 °C.

In turn, `Cc1ccc(NS(=O)(=O)c2ccccc2)cc1N` had a melting point of 142 to 144 °C.

As to `COC(=O)c1ccc2oc(CCl)c(C)c2c1`, the melting point is 114 to 115 °C.

`O=c1[nH]c2cc(S(=O)c3cccc4cnccc34)c([N+](=O)[O-])cc2s1` (stereo not drawn) gave a melting point above 270 °C.

As to `C#CCC#CCON1C(=O)c2ccccc2C1=O`, the melting point lay in the range of 134 to 135 °C.

For `O=C(O)c1ccc(C2=NCCO2)nc1`, the melting point was 286 to 287 °C.

On to `Cc1cc(-c2ccc(Cl)c(Cl)c2)nc(-c2ccnc(-c3cccc(S(N)(=O)=O)c3)c2)n1`, for which the melting point turned out to be 202 °C.

In turn, `CCc1ccc2oc(C(=O)Nc3ccc(-c4ccc(S(=O)(=O)NC(C(=O)OC)C(C)C)cc4)cc3)c(C)c2c1OC` (stereo not drawn) displayed a melting point of 170 to 172 °C.

`CCn1cc[nH]c(=O)c1=O` had a melting point of 173 to 174 °C.

Compound `O=P(O)(O)Cc1ccc(-c2ccc(CP(=O)(O)O)cc2)cc1` came in with a melting point of 114 °C.

`Cc1nc(OCCCc2cc(OC(C)C)nn2Cc2ccc(Cl)cc2Cl)c(CC(=O)O)s1` came in with a melting point of 75 to 77 °C.

The compound `Nc1ccc(C(=O)CCCN2CCC(OC(=O)c3cc(Cl)c(N)c4c3OCC4)CC2)cc1N` displayed a melting point of 173 °C.

For `CCCc1nnc2c(Cl)nc3ccccc3n12`, the melting point lay within 173 to 175 °C.

As to `O=C(N[C@H]1CC[C@H](CCN2CCC(c3cccc4c3CCO4)CC2)CC1)C1CCC1`, the melting point worked out at 197 °C.

For `CCC(C(=O)c1ccc(Cl)cc1)n1ncn(-c2ccc(N3CCN(c4ccc(OC)cc4)CC3)nc2)c1=O` (stereo not drawn), the melting point worked out at 142 °C.

Compound `COc1ccc(S(=O)(=O)C2(C(=O)O)CCN(C3CCCCCCC3)CC2)cc1` came in with a melting point of 180 °C.

The compound `COc1nc2cc([N+](=O)[O-])cc(C)c2nc1OC` yielded a melting point of 167 to 168 °C.

Compound `CC[C@H]1COC(=O)N1c1nc(-c2ccc(C#N)cc2)c(F)s1` came in with a melting point of 157 to 159 °C.

Consider `Cc1cccc(-n2nc(C)cc2-c2ccnc(N)c2)c1`, for which the melting point fell in the range of 124 to 125 °C.

Consider `Cc1onc(NS(=O)(=O)c2ccccc2-c2ccc(-c3ncco3)cc2CN(C)C(=O)CC(C)(C)C)c1C`, for which the melting point lay in the range of 120 to 128 °C.

Consider `O=C1c2ccccc2N(Cc2ccccc2)C2=NCCN12`, for which the melting point lay in the range of 203 to 205 °C.

Take `CCOC(C#Cc1cc(OC)c(OC)c(OC)c1)OCC`: the melting point was in the range of 62.5 to 63 °C.

In turn, `COc1ccc2c(c1)C(N1CCCC1=O)NN=C2Cc1c(Cl)cncc1Cl` (stereo not drawn) showed a melting point of 223 to 225 °C.

As for `CS(=O)(=O)Nc1cc2occ(C=NO)c(=O)c2cc1Oc1ccccc1`, the melting point fell in the range of 199 to 200 °C.

Turning to `O=C(CNc1ccc(S(=O)(=O)O)cc1)c1ccccc1`, the melting point was above 300 °C.

Compound `CC(=O)C=Cc1cccc(N(C)C)c1` had a melting point of 47 to 49 °C.

`Cc1cc(Cl)c([N+](=O)[O-])cc1NCCO`: the melting point is 110 °C.

Consider `Cc1cc(=O)[nH]c2cc(OCCCN3CCN(C(c4ccccc4)c4ccccc4)CC3)ccc12`, for which the melting point lay in the range of 208 to 210 °C.

Consider `Cc1cc2c(cc1C=O)OCO2`, for which the melting point lay in the range of 84 to 86 °C.

Regarding `CN(Cc1sc2c(=O)c(C(=O)NCc3ccc(Cl)cc3)cn(C)c2c1COCC[Si](C)(C)C)CC(O)c1cnccn1` (stereo not drawn), the melting point is 155 to 156 °C.

In turn, `CCCCCNC(=O)c1cnc(N2CCN(C(=O)c3ccccc3C(F)(F)F)CC2)s1` gave a melting point of 92 to 94 °C.

`Cc1nc2c(Cl)cnn2c(Cl)c1CCCl` yielded a melting point of 115 to 117 °C.

With `COc1ccccc1OCCCl`, the melting point is 36 to 38 °C.

`O=[N+]([O-])c1ccc(-c2n[nH]c3c2Cc2ccccc2-3)cc1` displayed a melting point of 267 to 270 °C.

Consider `COc1cc(C(C)C#Cc2c(C)nc(N)nc2N)cc(OC)c1OC` (stereo not drawn), for which the melting point is 191 to 193 °C.

`Cc1cccc([C@@H]2C[C@H]3C=C(c4c[nH]c(-c5ccc(F)cc5)c4-c4ccncc4)CCN3C2)c1` displayed a melting point of 204 to 206 °C.

On to `Cc1oc(C=Cc2ccc(Cl)cc2)nc1CO`, for which the melting point lay within 129 to 130 °C.

In turn, `COc1cccc(COc2ccc(S(=O)(=O)c3ccc(C)nc3Nc3c(C)cc(C)cc3C)cc2)c1OC` returned a melting point of 124 to 126 °C.

Compound `C=C1C[C@@H](C(=O)O)[C@H](C(=O)O)C1` (relative stereo) had a melting point of 178 to 179 °C.

The compound `CCCC(=O)NN=Cc1ccnc2ccccc12` had a melting point of 130 °C.

`COc1ccc(S(=O)(=O)NC(=O)c2ccc(C(=O)OC(C)C)nc2)cc1` showed a melting point of 215 to 216 °C.

Turning to `Cc1cc2c(cc1C1=NNC(=O)CC1C)N(C)C(=O)C(C)O2` (stereo not drawn), the melting point is 190 to 192 °C.

`COC(=O)C(=Cc1ccc(OC)c(OC)c1)C(C)=O`: the melting point fell in the range of 93 to 95 °C.

The compound `Nc1nc(-c2ccccc2OCC(F)(F)F)[nH]c(=O)c1N=O` came in with a melting point of 210 to 212 °C.

Regarding `Cc1nc2c(N)nc3cc(-c4ccccc4)ccc3c2n1CCCS(C)(=O)=O`, the melting point was 203 to 205 °C.

In turn, `CC(CO)c1ccc2nc(-c3ccccc3)oc2c1` (stereo not drawn) returned a melting point of 98 °C.

`O=C(O)CCc1ccc(CCNC(=O)c2ccccc2)cc1` showed a melting point of 164 to 165 °C.

`CC(C)(OCc1cc2cc(Cl)ccc2n1S(=O)(=O)c1ccc2c(c1)OCCO2)C(=O)O`: the melting point was 156 to 158 °C.

`Cn1nc(S(C)(=O)=O)c(=O)c2ccc(Cl)cc21`: the melting point was in the range of 270 to 272 °C.

In turn, `O=C(O)Cc1ccccc1Sc1ccc(F)c(F)c1` came in with a melting point of 54 to 57 °C.

The compound `N#CN=c1ccccn1C1=CC(CF)(CF)Oc2ccc(C(F)(F)C(F)(F)F)cc21` yielded a melting point of 196 to 198 °C.

Turning to `CC(C#N)(c1ccc(F)cc1)c1ccc([N+](=O)[O-])cc1Cl` (stereo not drawn), the melting point turned out to be 133 °C.

As to `NC1(CC(=O)O)CCCCC1`, the melting point was 200 to 204 °C.

`CCCC1(C(O)CCCN2CCC(N3Cc4ccccc4C3=O)CC2)c2ccccc2-c2ccccc21` (stereo not drawn) showed a melting point of 75 to 78 °C.

`O=C(c1cccnc1)C1COCOC1` registered a melting point of 91 to 100 °C.

For the compound `CCCc1c(OCCCSCCBr)ccc(C(C)=O)c1O`, the melting point is 74 to 75 °C.

The compound `CC(C)(C)CN1C(=O)C2CC(c3ccc(N)cc3)(C2)C1=O` returned a melting point of 142 to 143 °C.

Compound `CSc1cc(C)nc(SC)c1NC(=O)CCCCCCCSc1nc2ccccc2o1` had a melting point of 119 to 122 °C.

`COC(C(=O)O)c1ccc(OCc2ccccn2)cc1` (stereo not drawn): the melting point was in the range of 169 to 170 °C.

As to `COC(=O)c1cc(C(=O)c2c(C)c(OC)c3c(OCc4ccccc4)cccn23)ccc1N`, the melting point turned out to be 174 °C.

The compound `CCOC(=O)C(=O)Nc1cc(C#N)ccc1O` returned a melting point of 295 °C.

The compound `Cc1c(NC(=O)c2ccc(-c3ccc(F)cc3)cc2)ccc2cc(CN3CCN(C)CC3)cnc12` displayed a melting point of 152 to 153 °C.

Consider `CCn1c(=O)c2[nH]c(/C=C/c3cc(C(F)(F)F)cc(C(F)(F)F)c3)nc2n(CC)c1=O`, for which the melting point is above 280 °C.

In the case of `CC(=O)C1Cc2c(nc3ccccc3c2C)C(N2CCOCC2)CN1` (stereo not drawn), the melting point was 179 °C.

In turn, `O=C(NN1CCCCC1)c1nn(-c2ccc(Cl)cc2Cl)c2c1SCc1cc(Cl)ccc1-2` returned a melting point of 148 °C.

Turning to `Cc1nnc2n1-c1ccc([N+](=O)[O-])cc1C(c1ccccc1F)=NC2(C)C`, the melting point worked out at 195 °C.

`CC1(C)CCc2cc(O)c(O)cc2C1=O` displayed a melting point of 163 to 165 °C.

The compound `C=CS(=O)(=O)Nc1c(C)cc([N+](=O)[O-])cc1C` had a melting point of 132 °C.

The compound `O=C(CCCC=CCC1C(O)CC(O)C1C=CC(O)CCc1ccccc1)ON1C(=O)CCC1=O` (stereo not drawn) had a melting point of 93.5 to 103 °C.

With `C=CC(CC(O)C(CC1CCCCC1)NC(=O)C(Cc1c[nH]cn1)NC(=O)C(CN)(Cc1ccccc1)Cc1ccccc1)C(C)C` (stereo not drawn), the melting point amounted to 89 °C.

Compound `c1ccc(OC(Oc2ccccc2)Oc2c3ccccc3cc3ccccc23)cc1` registered a melting point of 90 to 92 °C.

Regarding `O=CC(=Cc1ccccc1OCc1ccc([N+](=O)[O-])cc1)C(C=O)=Cc1ccccc1OCc1ccc([N+](=O)[O-])cc1`, the melting point lay within 116 to 117 °C.

Compound `O=C(Nc1ccc(C(=O)N2Cc3ccc(C(=O)C(Cl)(Cl)Cl)n3Cc3ccccc32)cc1)c1ccccc1C(F)(F)F` returned a melting point of 219 to 221 °C.

For the compound `O=Cc1ccc2c(c1)Sc1ccccc1CC2`, the melting point lay within 55.5 to 56.5 °C.

For `O=C(N=C1SCCN1Cc1ccc(Cl)nc1)C(F)(F)F`, the melting point came out at 96 °C.

As to `OC1CSC(Oc2cccc(-c3cncc(F)c3)c2)C(O)C1O` (stereo not drawn), the melting point was in the range of 211 to 212 °C.

Take `COC(=O)C1(Cl)CCC(=O)O1` (stereo not drawn): the melting point lay within 50.5 to 51 °C.

Take `COC(=O)CNC(=O)CNC(=O)OC(C)(C)C` (Boc-Gly-Gly-OMe): the melting point fell in the range of 132 to 135 °C.

As to `c1ccc(COCCNc2ccc(Nc3ncnc4cc(-c5ccccc5)sc34)cc2)cc1`, the melting point was 201 to 203 °C.

In turn, `Cn1cc(CC(SSC(Cc2cn(C)c3ccccc23)C(=O)O)C(=O)O)c2ccccc21` (stereo not drawn) registered a melting point of 158 to 160 °C.

`CCCCCCCC[Si](C)(C)c1cccc(Cl)c1C(=O)NCC`: the melting point lay in the range of 62 to 63 °C.

For the compound `CC(C)c1cc2c(cc1O)C(C)(C)CCC2(C)C`, the melting point lay within 79 to 80 °C.

`CC#Cc1ncn2c1[C@@H]1CCCN1C(=O)c1c(Cl)cccc1-2` returned a melting point of 208 to 209 °C.

As to `C#CCc1c(C)nc2c(OCc3c(C)cccc3N(C)C(C)=O)cccn12`, the melting point came out at 76 °C.

In the case of `N#CNC(=NCCN1CCC(C(=O)c2ccc(F)cc2)CC1)N1CCCCC1`, the melting point was 139 to 141 °C.

Compound `O=C1Cc2cccc(-c3ccccc3)c2C1` displayed a melting point of 133 to 136 °C.

Regarding `COc1c(C)c2c(c(O)c1C/C=C1\CCC(C(=O)O)C1)C(=O)OC2` (stereo not drawn), the melting point is 128 to 130 °C.
